# In ChEMBL document CHEMBL4715724, “Novel 5-substituted-2-anilinoquinolines with 3-(morpholino or 4-methylpiperazin-1-yl)propoxy moiety as broad spectrum antiproliferative agents: Synthesis, cell based assays and kinase screening” (Bioorg Med Chem Lett, 2016):
# Assays:
# Format in all cases: functional
# SF-295 = experiment: cells; details: Homo sapiens, time 48 hrs
# Description: Growth inhibition of human SF-295 cells incubated for 48 hrs by sulforhodamine B assay
# LOX IMVI = experiment: cells; details: Homo sapiens, time 48 hrs
# Description: Growth inhibition of human LOX IMVI cells incubated for 48 hrs by sulforhodamine B assay
# [1] = tested on: Panel NCI-60 (60 carcinoma cell lines); experiment: cells; details: Homo sapiens, time 48 hrs
# Description: Growth inhibition of human Panel NCI-60 (60 carcinoma cell lines) incubated for 48 hrs by sulforhodamine B assay
# PC-3 = experiment: cells; details: Homo sapiens, time 48 hrs
# Description: Growth inhibition of human PC-3 cells incubated for 48 hrs by sulforhodamine B assay
# [2] = tested on: Panel breast (Carcinoma cell lines); experiment: cells; details: Homo sapiens, time 48 hrs
# Description: Growth inhibition of human Panel breast (Carcinoma cell lines) incubated for 48 hrs by sulforhodamine B assay
# UACC-257 = experiment: cells; details: Homo sapiens, time 48 hrs
# Description: Growth inhibition of human UACC-257 cells incubated for 48 hrs by sulforhodamine B assay
# HCT-116 = experiment: cells; details: Homo sapiens, time 48 hrs
# Description: Growth inhibition of human HCT-116 cells incubated for 48 hrs by sulforhodamine B assay
# U-251 = experiment: cells; details: Homo sapiens, time 48 hrs
# Description: Growth inhibition of human U-251 cells incubated for 48 hrs by sulforhodamine B assay
# MDA-MB-231 = experiment: cells; details: Homo sapiens, time 48 hrs
# Description: Growth inhibition of human MDA-MB-231/ATCC cells incubated for 48 hrs by sulforhodamine B assay
# A549 = experiment: cells; details: Homo sapiens, time 48 hrs
# Description: Growth inhibition of human A549/ATCC cells incubated for 48 hrs by sulforhodamine B assay
# KM12 = experiment: cells; details: Homo sapiens, time 48 hrs
# Description: Growth inhibition of human KM12 cells incubated for 48 hrs by sulforhodamine B assay
# NCI-H460 = experiment: cells; details: Homo sapiens, time 48 hrs
# Description: Growth inhibition of human NCI-H460 cells incubated for 48 hrs by sulforhodamine B assay
# NCI-H322M = experiment: cells; details: Homo sapiens, time 48 hrs
# Description: Growth inhibition of human NCI-H322M cells incubated for 48 hrs by sulforhodamine B assay
# OVCAR-3 = experiment: cells; details: Homo sapiens, time 48 hrs
# Description: Growth inhibition of human OVCAR-3 cells incubated for 48 hrs by sulforhodamine B assay
# SK-MEL-28 = experiment: cells; details: Homo sapiens, time 48 hrs
# Description: Growth inhibition of human SK-MEL-28 cells incubated for 48 hrs by sulforhodamine B assay
# HT-29 = experiment: cells; details: Homo sapiens, time 48 hrs
# Description: Growth inhibition of human HT-29 cells incubated for 48 hrs by sulforhodamine B assay
# OVCAR-4 = experiment: cells; details: Homo sapiens, time 48 hrs
# Description: Growth inhibition of human OVCAR-4 cells incubated for 48 hrs by sulforhodamine B assay
# CCRF-CEM = experiment: cells; details: Homo sapiens, time 48 hrs
# Description: Growth inhibition of human CCRF-CEM cells incubated for 48 hrs by sulforhodamine B assay
# RXF 393 = experiment: cells; details: Homo sapiens, time 48 hrs
# Description: Growth inhibition of human RXF 393 cells incubated for 48 hrs by sulforhodamine B assay
# [3] = tested on: Panel CNS (Carcinoma cell lines); experiment: cells; details: Homo sapiens, time 48 hrs
# Description: Growth inhibition of human Panel CNS (Carcinoma cell lines) incubated for 48 hrs by sulforhodamine B assay
# SK-MEL-5 = experiment: Growth inhibition of human SK-MEL-5 cells assessed as growth percentage at 10 uM measured after 48 hrs by sulforhodamine B assay relative to control; details: read-out: Activity
# K562 = experiment: cells; details: Homo sapiens, time 48 hrs
# Description: Growth inhibition of human K562 cells incubated for 48 hrs by sulforhodamine B assay
# [4] = tested on: Panel ovarian (Carcinoma cell lines); experiment: cells; details: Homo sapiens, time 48 hrs
# Description: Growth inhibition of human Panel ovarian (Carcinoma cell lines) incubated for 48 hrs by sulforhodamine B assay
# SNB-75 = experiment: cells; details: Homo sapiens, time 48 hrs
# Description: Growth inhibition of human SNB-75 cells incubated for 48 hrs by sulforhodamine B assay
# NCI-H226 = experiment: cells; details: Homo sapiens, time 48 hrs
# Description: Growth inhibition of human NCI-H226 cells incubated for 48 hrs by sulforhodamine B assay
# IGROV-1 = experiment: cells; details: Homo sapiens, time 48 hrs
# Description: Growth inhibition of human IGROV-1 cells incubated for 48 hrs by sulforhodamine B assay
# NCI-H522 = experiment: cells; details: Homo sapiens, time 48 hrs
# Description: Growth inhibition of human NCI-H522 cells incubated for 48 hrs by sulforhodamine B assay
# UACC-62 = experiment: cells; details: Homo sapiens, time 48 hrs
# Description: Growth inhibition of human UACC-62 cells incubated for 48 hrs by sulforhodamine B assay
# [5] = tested on: Panel melanoma (Carcinoma cell lines); experiment: cells; details: Homo sapiens, time 48 hrs
# Description: Growth inhibition of human Panel melanoma (Carcinoma cell lines) incubated for 48 hrs by sulforhodamine B assay
# NCI-H23 = experiment: cells; details: Homo sapiens, time 48 hrs
# Description: Growth inhibition of human NCI-H23 cells incubated for 48 hrs by sulforhodamine B assay
# [6] = tested on: Panel colon (Carcinoma cell lines); experiment: cells; details: Homo sapiens, time 48 hrs
# Description: Growth inhibition of human Panel colon (Carcinoma cell lines) incubated for 48 hrs by sulforhodamine B assay
# SR = experiment: cells; details: Homo sapiens, time 48 hrs
# Description: Growth inhibition of human SR cells incubated for 48 hrs by sulforhodamine B assay
# MDA-MB-468 = experiment: cells; details: Homo sapiens, time 48 hrs
# Description: Growth inhibition of human MDA-MB-468 cells incubated for 48 hrs by sulforhodamine B assay
# [7] = tested on: Panel renal (Carcinoma cell lines); experiment: cells; details: Homo sapiens, time 48 hrs
# Description: Growth inhibition of human Panel renal (Carcinoma cell lines) incubated for 48 hrs by sulforhodamine B assay
# HCT-15 = experiment: cells; details: Homo sapiens, time 48 hrs
# Description: Growth inhibition of human HCT-15 cells incubated for 48 hrs by sulforhodamine B assay
# HOP-62 = experiment: cells; details: Homo sapiens, time 48 hrs
# Description: Growth inhibition of human HOP-62 cells incubated for 48 hrs by sulforhodamine B assay
# [8] = tested on: Panel leukemia (Carcinoma cell lines); experiment: cells; details: Homo sapiens, time 48 hrs
# Description: Growth inhibition of human Panel leukemia (Carcinoma cell lines) incubated for 48 hrs by sulforhodamine B assay
# [9] = tested on: Panel prostate (Carcinoma cell lines); experiment: cells; details: Homo sapiens, time 48 hrs
# Description: Growth inhibition of human Panel prostate (Carcinoma cell lines) incubated for 48 hrs by sulforhodamine B assay
# TK-10 = experiment: cells; details: Homo sapiens, time 48 hrs
# Description: Growth inhibition of human TK-10 cells incubated for 48 hrs by sulforhodamine B assay
# UO-31 = experiment: cells; details: Homo sapiens, time 48 hrs
# Description: Growth inhibition of human UO-31 cells incubated for 48 hrs by sulforhodamine B assay
# MCF7 = experiment: cells; details: Homo sapiens, time 48 hrs
# Description: Growth inhibition of human MCF7 cells incubated for 48 hrs by sulforhodamine B assay
# cells = details: Homo sapiens, Non-small cell lung cancer cell line; time 48 hrs
# Description: Growth inhibition of human Non-small cell lung cancer cell line incubated for 48 hrs by sulforhodamine B assay
# OVCAR-8 = experiment: cells; details: Homo sapiens, time 48 hrs
# Description: Growth inhibition of human OVCAR-8 cells incubated for 48 hrs by sulforhodamine B assay
# Hs-578T = experiment: cells; details: Homo sapiens, time 48 hrs
# Description: Growth inhibition of human Hs-578T cells incubated for 48 hrs by sulforhodamine B assay
# A498 = experiment: cells; details: Homo sapiens, time 48 hrs
# Description: Growth inhibition of human A498 cells incubated for 48 hrs by sulforhodamine B assay
# HOP-92 = experiment: cells; details: Homo sapiens, time 48 hrs
# Description: Growth inhibition of human HOP-92 cells incubated for 48 hrs by sulforhodamine B assay
# [10] = read-out: LC50 (the source's name)
compound,measurement,setting,value
CN1CCN(CCCOc2cccc3nc(Nc4ccc(F)c(F)c4)ccc23)CC1,GI50,SF-295,4.64 µM
same,GI50,LOX IMVI,1.03 µM
same,GI50,[1],2.63 µM
same,TGI,[1],6.76 µM
same,CC50,[1]; [10],16.2 µM
same,GI50,PC-3,3.83 µM
same,GI50,[2],3.14 µM
same,TGI,[2],7.98 µM
same,CC50,[2]; [10],20.3 µM
same,GI50,UACC-257,0.66 µM
same,GI50,HCT-116,3.8 µM
same,GI50,U-251,2.68 µM
same,GI50,MDA-MB-231,0.937 µM
same,GI50,A549,3.5 µM
same,GI50,KM12,2.35 µM
same,GI50,NCI-H460,2.37 µM
same,GI50,NCI-H322M,3.93 µM
same,GI50,OVCAR-3,4.58 µM
same,GI50,SK-MEL-28,1.08 µM
same,GI50,HT-29,0.62 µM
same,GI50,OVCAR-4,6.42 µM
same,GI50,CCRF-CEM,2.42 µM
same,GI50,RXF 393,2.11 µM
same,GI50,[3],4.1 µM
same,TGI,[3],9.09 µM
same,CC50,[3]; [10],16.1 µM
same,growth at 10 µM,SK-MEL-5,-26.8%
same,GI50,K562,0.66 µM
same,GI50,[4],5.13 µM
same,LC50,[4],20.5 µM
same,TGI,[4],10.8 µM
same,GI50,SNB-75,3.92 µM
same,GI50,NCI-H226,5.51 µM
same,GI50,IGROV-1,5.55 µM
same,GI50,NCI-H522,1.01 µM
same,GI50,UACC-62,0.7 µM
same,GI50,[5],1.69 µM
same,LC50,[5],10.5 µM
same,TGI,[5],4.4 µM
same,GI50,NCI-H23,4.67 µM
same,GI50,[6],2.11 µM
same,TGI,[6],5.9 µM
same,CC50,[6]; [10],12.2 µM
same,GI50,SR,0.87 µM
same,GI50,MDA-MB-468,2.11 µM
same,GI50,[7],4.16 µM
same,LC50 (lethal concentration 50%),[7],18.9 µM
same,TGI,[7],8.98 µM
same,GI50,HCT-15,0.96 µM
same,GI50,HOP-62,1.25 µM
same,GI50,[8],2.6 µM
same,LC50 (50% lethal concentration),[8],21.1 µM
same,TGI,[8],7.09 µM
same,GI50,[9],4.07 µM
same,LC50 (concentration killing 50% of cells),[9],18 µM
same,TGI,[9],8.55 µM
same,GI50,TK-10,2.63 µM
same,GI50,UO-31,4.34 µM
same,GI50,MCF7,3.33 µM
same,GI50,cells,3.17 µM
same,LC50 (50% lethal concentration),cells,18.9 µM
same,TGI,cells,7.79 µM
same,GI50,OVCAR-8,5.13 µM
same,GI50,Hs-578T,4.73 µM
same,GI50,A498,5.66 µM
same,GI50,HOP-92,1.43 µM
